Assay results: paper PMC13534789, “Molecular Glue Degraders Enhance CAPRIN1‐Dependent Lysosomal Degradation of APP and Reduce Amyloid β in Alzheimer's Disease” (Advanced Science, 2026)

Legend:
CAPRIN1–APP interaction = CAPRIN1–APP interaction (Homo sapiens, UniProt P05067+Q14444); test: In vitro binding assay, recombinant CAPRIN1 and APP (reciprocal co-IP); parameters: recombinant human CAPRIN1 (full length, 100 ng) was added; purchased Biolegend; settings: concentration-dependent
Experimental: When CAPRIN1 was used as a bait, recombinant CAPRIN1 (200 ng) was mixed with anti‐CAPRIN1 antibodies (1 µg) in IP buffer (25 mM Tris, 150 mM NaCl, 5% Glycerol, and 1% Triton X‐100 at pH 7.4) overnight at 4°C, followed by the addition of Protein‐G agarose beads for 4 h at 4°C. CAPRIN1 conjugated beads were then washed with binding buffer (20 mM HEPES, 100 mM NaCl, 0.01% Triron X‐100, and 5% Glycerol at pH 7.25) before the addition of recombinant human APP (prey) for 1 h at 4°C. Beads were washed and eluted with Laemmli buffer with boiling, followed by Western blotting. When APP was used as a bait, biotin‐conjugated APP antibody (1 µg; 4G8, Biolegend) was pre‐mixed with recombinant APP (100 ng, Biolegend) in pulldown buffer (0.1% NP‐40, 50 mM Tris, 150 mM NaCl, 0.2 mM EDTA, 100 mM KCl, 1 mM MgCl2, 0.2 mM CaCl2, and 10% glycerol) overnight at 4°C, followed by addition of 0.5 mg of Streptavidin magnetic beads (Pierce) for 1 h at 4°C. After washing the beads, recombinant human CAPRIN1 (full length, 100 ng) was added together with dose‐dependent 0043 in the binding buffer for 1 h at 4°C. Beads were washed and eluted with Laemmli buffer with boiling, followed by Western blotting.

rhCAPRIN1 and rhAPP = test: ThermoFluor assay with recombinant proteins; type: binding, human; settings: proteins 5 µM
Experimental: For the Thermofluor assay, Huynh's protocol was used with minor modifications. In brief, all proteins were used at a final concentration of 5 µM for this assay, and GloMelt Thermal Shift Protein Stability Kit (Biotium) was used at a final concentration of 0.5X. All experiments were carried out with QuantStudio 6 Flex (Applied Biosystems). SYBR was used as a reporter, and ROX was used as a passive reference according to the manufacturer's directions. Melting curve data were exported, followed by analysis with Boltzmann's sigmoidal curve in GraphPad Prism.

[1] = target: T1, APP695–CAPRIN1 interaction (Homo sapiens, UniProt P05067+Q14444); test: SPR, APP695 onto immobilized CAPRIN1 with 0152; type: binding; settings: equimolar 0152 vs no compound
T1 construct: 10xHis‐MBP‐APP695 (full‐length) alone was loaded; 10xHis (N); MBP (followed by a 3C site) (N); 10xHis (followed by a 3C site) (N); made in house; host or cells: Tni (Hi5) insect cells, baculovirus
T1 sequence (P05067 18-695 isoform P05067-4 limits assumed): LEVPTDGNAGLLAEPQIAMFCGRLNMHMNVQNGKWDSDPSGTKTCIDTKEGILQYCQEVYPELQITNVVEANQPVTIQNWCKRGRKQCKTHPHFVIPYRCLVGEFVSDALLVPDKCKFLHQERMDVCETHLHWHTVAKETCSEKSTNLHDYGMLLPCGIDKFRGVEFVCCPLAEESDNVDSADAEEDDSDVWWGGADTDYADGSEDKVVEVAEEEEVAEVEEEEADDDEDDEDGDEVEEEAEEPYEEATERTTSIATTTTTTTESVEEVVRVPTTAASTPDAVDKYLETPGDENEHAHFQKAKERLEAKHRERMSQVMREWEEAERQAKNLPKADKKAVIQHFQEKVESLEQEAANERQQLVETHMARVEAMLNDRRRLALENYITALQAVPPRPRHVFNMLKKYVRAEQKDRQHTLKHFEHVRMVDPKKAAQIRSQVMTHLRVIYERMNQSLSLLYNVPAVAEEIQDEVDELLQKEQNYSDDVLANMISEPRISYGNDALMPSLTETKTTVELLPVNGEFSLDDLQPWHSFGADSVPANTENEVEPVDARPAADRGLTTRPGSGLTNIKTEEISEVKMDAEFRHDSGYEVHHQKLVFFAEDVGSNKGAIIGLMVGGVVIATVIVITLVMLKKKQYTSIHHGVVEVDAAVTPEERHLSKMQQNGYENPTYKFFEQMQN
T1 sequence (Q14444 whole entry): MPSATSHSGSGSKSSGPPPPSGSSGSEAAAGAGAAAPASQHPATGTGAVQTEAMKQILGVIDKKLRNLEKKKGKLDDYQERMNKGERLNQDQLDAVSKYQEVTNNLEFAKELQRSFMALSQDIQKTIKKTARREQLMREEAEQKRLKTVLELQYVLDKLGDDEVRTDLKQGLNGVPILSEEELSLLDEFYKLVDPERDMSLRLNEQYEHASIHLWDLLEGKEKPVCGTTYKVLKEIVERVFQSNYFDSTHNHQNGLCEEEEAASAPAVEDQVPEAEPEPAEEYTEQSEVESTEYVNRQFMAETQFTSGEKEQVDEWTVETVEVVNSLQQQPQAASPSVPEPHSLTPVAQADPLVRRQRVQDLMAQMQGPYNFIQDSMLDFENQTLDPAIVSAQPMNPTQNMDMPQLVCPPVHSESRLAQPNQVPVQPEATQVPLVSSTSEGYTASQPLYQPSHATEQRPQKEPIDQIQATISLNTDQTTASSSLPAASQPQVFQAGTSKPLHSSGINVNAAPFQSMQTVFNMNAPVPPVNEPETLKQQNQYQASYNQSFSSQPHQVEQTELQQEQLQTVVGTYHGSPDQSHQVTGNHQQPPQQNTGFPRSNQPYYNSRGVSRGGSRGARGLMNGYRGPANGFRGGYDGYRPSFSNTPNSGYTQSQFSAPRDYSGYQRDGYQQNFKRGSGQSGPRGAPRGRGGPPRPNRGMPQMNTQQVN
Experimental: SPR experiments were conducted to investigate the interaction between APP695 and CAPRIN1 proteins using a Biacore T200 instrument (Cytiva). Both proteins were expressed in Tni (Hi5) insect cells and purified to homogeneity via tandem affinity and ion‐exchange. Protein purity and integrity were confirmed by SDS‐PAGE and size‐exclusion chromatography prior to analysis. All experiments were performed in a running buffer consisting of 50 mM HEPES at […], 100 mM KCl, 10% glycerol, and 0.01% (v/v) Tween‐20 supplemented with 0.1% (w/v) Sarkosyl (pH 7.4). APP695 was serially diluted in running buffer to final concentrations of 15, 5, 1, and 0.3 µM. Chip Preparation: A CM5 sensor chip (Cytiva) was activated using a 1:1 (v/v) mixture of 0.1 M N‐hydroxysuccinimide (NHS) and 0.1 M N‐ethyl‐N′‐(3‐dimethylaminopropyl) carbodiimide (EDC) to generate reactive ester groups. CAPRIN1 was diluted to 50 µg/mL in 10 mM Hepes‐KOH buffer (pH 6.0) and immobilized on the chip surface via standard amine coupling to achieve immobilization. Unreacted sites were blocked with 1 M ethanolamine‐HCl (pH 8.5). A reference flow cell was prepared similarly but without protein immobilization to control for non‐specific binding and bulk refractive index changes. Binding assay: Binding interactions were measured at 25°C with a flow rate of 30 µL/min. APP695 solutions were injected over the CAPRIN1‐immobilized and reference flow cells for 45 s (association phase), followed by a 240 s dissociation phase with running buffer alone. Internal control injections for one concentration of APP695 were performed to ensure reproducibility for every round of the experiment. […] APP (1–300) was also tested for binding to CAPRIN1 under identical conditions. To assess potential non‐specific interactions, 0043 and 0152 were tested for binding to APP‐695 captured on a CM5 chip using a steady‐state model. Data analysis: Sensograms were processed using Biacore T200 Evaluation Software. […]

[2] = Brain/plasma ratio in mice; type: in vivo, male C57BL/6 mice; settings: male, C57BL/6, brain, 10 mg/kg; mouse, PO, 10 mpk; read-out: B/P-Kp (brain-to-plasma partition coefficient)
Experimental: Brain/Plasma Ratio test was processed by Sai Life Sciences Pvt. Ltd. Briefly, twelve male C57BL/6 mice were administered orally with solution formulation of 0152 at 10 mg/kg dose. Blood samples (approximately 60 µL) were collected under light isoflurane anesthesia from a set of three mice at 0.25, 0.5, 1, and 2 h. The blood samples were collected at each time point in labelled micro centrifuge tube containing K2EDTA as anticoagulant. Plasma was harvested by centrifugation of blood and stored at ‐70±10°C until analysis. Immediately after collecting blood, animals were anesthetized, perfused using 10 mL phosphate buffer saline, and brain samples were collected from each mouse at respective time points. Brain samples were homogenized using ice‐cold phosphate buffer saline (pH 7.4), and homogenates were stored below ‐70±10°C until analysis. Total homogenate volume was three times the brain weight. The plasma and brain concentration‐time data of 0152 were used for calculation. Plasma and brain samples were quantified by fit‐for‐purpose LC‐MS/MS method.

Sequence of CAPRIN1–APP interaction (Q14444 whole entry): as above
Sequence of CAPRIN1–APP interaction (P05067 18-770): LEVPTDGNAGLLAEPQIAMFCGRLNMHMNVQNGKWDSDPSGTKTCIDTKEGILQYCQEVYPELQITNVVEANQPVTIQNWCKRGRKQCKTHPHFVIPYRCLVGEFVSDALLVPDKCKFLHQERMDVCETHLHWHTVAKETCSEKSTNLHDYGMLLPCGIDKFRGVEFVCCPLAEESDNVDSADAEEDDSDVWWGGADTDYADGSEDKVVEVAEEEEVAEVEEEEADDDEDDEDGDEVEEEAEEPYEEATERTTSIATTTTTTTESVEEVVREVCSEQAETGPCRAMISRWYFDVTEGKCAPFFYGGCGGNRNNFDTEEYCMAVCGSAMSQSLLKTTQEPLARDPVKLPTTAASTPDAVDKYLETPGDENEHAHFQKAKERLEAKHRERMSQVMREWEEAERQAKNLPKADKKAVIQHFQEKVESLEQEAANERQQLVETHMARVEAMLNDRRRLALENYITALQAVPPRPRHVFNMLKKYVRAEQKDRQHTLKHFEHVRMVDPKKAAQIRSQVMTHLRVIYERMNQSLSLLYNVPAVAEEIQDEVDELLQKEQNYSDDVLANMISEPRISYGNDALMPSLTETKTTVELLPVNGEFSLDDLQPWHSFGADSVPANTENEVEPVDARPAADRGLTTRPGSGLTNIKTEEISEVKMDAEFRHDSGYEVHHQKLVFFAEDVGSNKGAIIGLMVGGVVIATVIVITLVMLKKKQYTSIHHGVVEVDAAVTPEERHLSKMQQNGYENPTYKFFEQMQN

SMILES | Interaction of recombinant CAPRIN1 and APP (reciprocal co-IP) (CAPRIN1–APP interaction) | Thermal shift of recombinant CAPRIN1 and APP (rhCAPRIN1 and rhAPP) | Decrease of dissociation rate constant (Koff) of APP695–CAPRIN1 [1] [fold] | Increase of association rate constant (Kon) of APP695–CAPRIN1 [1] [fold] | Reduction of equilibrium dissociation constant (KD) of APP695–CAPRIN1 [1] [fold] | Kp [2]
N#Cc1cccc(NC(=O)Nc2nc3ccc(C(=O)N4CCOCC4)cc3s2)c1 [compound 0043] | enhanced the interaction between CAPRIN1 and APP | thermal shifts for both proteins |  |  |  | 
COc1cccc(NC(=O)Nc2nc3ccc(C(=O)N4CCOCC4)cc3s2)c1 [compound 0152] |  |  | 10 | 3.5 | 36 | 0.03
